Experiments:
[1] = target: T1, Dual specificity mitogen-activated protein kinase kinase 6 (Homo sapiens, UniProt P52564); experiment: Inhibition of MKK6 (unknown origin)
T1 sequence (P52564 whole entry): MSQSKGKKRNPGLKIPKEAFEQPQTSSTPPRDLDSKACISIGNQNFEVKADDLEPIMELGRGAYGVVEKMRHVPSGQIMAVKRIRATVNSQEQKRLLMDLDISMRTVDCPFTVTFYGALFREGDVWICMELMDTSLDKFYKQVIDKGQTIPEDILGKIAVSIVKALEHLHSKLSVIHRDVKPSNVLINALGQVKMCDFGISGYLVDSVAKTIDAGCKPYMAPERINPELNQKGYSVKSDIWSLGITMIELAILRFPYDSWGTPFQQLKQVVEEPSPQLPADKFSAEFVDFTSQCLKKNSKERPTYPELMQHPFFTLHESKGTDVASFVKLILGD

[2] = target: T2, Dual specificity mitogen-activated protein kinase kinase 7 (Homo sapiens) (UniProt O14733); experiment: Binding affinity to MKK7 (unknown origin) assessed as percent of control at 100 nM by Kinomescan method relative to control
T2 sequence (whole entry): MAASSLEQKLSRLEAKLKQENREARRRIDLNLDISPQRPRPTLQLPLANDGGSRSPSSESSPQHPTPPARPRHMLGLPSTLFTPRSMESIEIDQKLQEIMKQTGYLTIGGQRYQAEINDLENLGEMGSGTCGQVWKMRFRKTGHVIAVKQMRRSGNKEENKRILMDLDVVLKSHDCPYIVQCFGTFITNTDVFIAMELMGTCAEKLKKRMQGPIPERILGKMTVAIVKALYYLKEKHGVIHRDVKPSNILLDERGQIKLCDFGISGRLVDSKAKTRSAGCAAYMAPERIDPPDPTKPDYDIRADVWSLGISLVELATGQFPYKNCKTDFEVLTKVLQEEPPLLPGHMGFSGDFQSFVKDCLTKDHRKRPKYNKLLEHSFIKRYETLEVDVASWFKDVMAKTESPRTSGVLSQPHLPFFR

[3] = target: Mitogen-activated protein kinase kinase kinase 20 (Homo sapiens) (UniProt Q9NYL2); experiment: Binding affinity to ZAK (unknown origin) assessed as percent of control at 100 nM by Kinomescan method relative to control
Mitogen-activated protein kinase kinase kinase 20 (Homo sapiens), sequence (Q9NYL2 2-800 limits assumed): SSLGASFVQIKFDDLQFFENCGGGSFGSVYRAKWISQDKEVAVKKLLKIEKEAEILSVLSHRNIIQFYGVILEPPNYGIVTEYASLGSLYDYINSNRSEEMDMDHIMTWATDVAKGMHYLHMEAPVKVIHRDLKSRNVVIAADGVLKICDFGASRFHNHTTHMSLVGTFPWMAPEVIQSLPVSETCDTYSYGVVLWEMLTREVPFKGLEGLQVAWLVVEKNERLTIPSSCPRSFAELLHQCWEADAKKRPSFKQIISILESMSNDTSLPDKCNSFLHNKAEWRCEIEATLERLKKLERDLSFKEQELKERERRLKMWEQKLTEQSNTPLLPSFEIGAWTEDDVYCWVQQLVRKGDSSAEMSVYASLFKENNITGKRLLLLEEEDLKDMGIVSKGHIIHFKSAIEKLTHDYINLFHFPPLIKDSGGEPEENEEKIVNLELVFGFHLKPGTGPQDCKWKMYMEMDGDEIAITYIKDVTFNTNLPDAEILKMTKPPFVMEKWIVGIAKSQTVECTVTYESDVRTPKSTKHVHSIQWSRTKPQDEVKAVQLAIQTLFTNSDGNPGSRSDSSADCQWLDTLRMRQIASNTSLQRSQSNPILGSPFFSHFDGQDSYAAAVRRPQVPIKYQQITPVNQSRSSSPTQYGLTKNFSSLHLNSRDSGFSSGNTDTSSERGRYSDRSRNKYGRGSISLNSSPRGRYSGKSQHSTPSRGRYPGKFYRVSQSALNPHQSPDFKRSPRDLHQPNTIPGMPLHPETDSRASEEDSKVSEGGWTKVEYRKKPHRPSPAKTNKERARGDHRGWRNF

NC(=O)c1ccc2[nH]c3ncnc(-c4ccccc4)c3c2c1
IC50 [1]: < 1000 nM

CCCS(=O)(=O)Nc1ccc(F)c(C(=O)c2c[nH]c3ncc(-c4ccc(OCC(O)CO)cc4)cc23)c1F (stereo unspecified)
Activity [2]: 99% | Activity [3]: 0.35%

CCCS(=O)(=O)Nc1ccc(F)c(C(=O)c2ccc3[nH]c4ncc(-c5ccccc5F)cc4c3c2)c1F
Activity [2]: 100% | Activity [3]: 100%

CCCS(=O)(=O)Nc1ccc(F)c(C(=O)c2ccc3[nH]c4ncc(-c5ccc(S(=O)(=O)NCC(O)CO)cc5)cc4c3c2)c1F (stereo unspecified)
Activity [2]: 97% | Activity [3]: 100%

CCCS(=O)(=O)Nc1ccc(F)c(C(=O)c2c[nH]c3ncc(-c4cccnc4)cc23)c1F
Activity [2]: 100% | Activity [3]: 0.6%

CCCS(=O)(=O)Nc1ccc(F)c(C(=O)c2n[nH]c3ncc(-c4ccc(S(=O)(=O)NCC(O)CO)cc4)cc23)c1F (stereo unspecified)
Activity [2]: 100% | Activity [3]: 29%

CCCS(=O)(=O)Nc1ccc(F)c(C(=O)c2ccc3[nH]c4ncc(-c5ccc(C(N)=O)cc5)cc4c3c2)c1F
Activity [2]: 98% | Activity [3]: 89%

CCCS(=O)(=O)Nc1ccc(F)c(C(=O)c2ccc3[nH]c4ncc(-c5ccc(S(N)(=O)=O)cc5)cc4c3c2)c1F
Activity [2]: 100% | Activity [3]: 100%

CCCS(=O)(=O)Nc1ccc(F)c(C(=O)c2ccc3[nH]c4ncc(-c5ccc(C(=O)NCC(O)CO)cc5)cc4c3c2)c1F (stereo unspecified)
Activity [2]: 100% | Activity [3]: 88%

CCCS(=O)(=O)Nc1ccc(F)c(C(=O)c2n[nH]c3ncc(-c4ccc(O)cc4)cc23)c1F
Activity [3]: 0%

CCCS(=O)(=O)Nc1ccc(F)c(C(=O)c2ccc3[nH]c4ncc(-c5ccc(-c6nnn[nH]6)cc5)cc4c3c2)c1F
Activity [2]: 100% | Activity [3]: 100%

CCCS(=O)(=O)Nc1ccc(F)c(C(=O)c2ccc3[nH]c4ncc(-c5ccc(Cl)cc5)cc4c3c2)c1F
Activity [2]: 100% | Activity [3]: 100%

CCCS(=O)(=O)Nc1ccc(F)c(C(=O)c2n[nH]c3ncc(-c4ccc(C(=O)NCC(O)CO)cc4)cc23)c1F (stereo unspecified)
Activity [2]: 97% | Activity [3]: 2.8%

CCCS(=O)(=O)Nc1ccc(F)c(C(=O)c2ccc3[nH]c4ncc(-c5ccncc5)cc4c3c2)c1F
Activity [2]: 91% | Activity [3]: 94%

CCCS(=O)(=O)Nc1ccc(F)c(C(=O)c2ccc3[nH]c4ncc(-c5ccc(C(=O)O)cc5)cc4c3c2)c1F
Activity [2]: 100% | Activity [3]: 98%

CCCS(=O)(=O)Nc1ccc(F)c(C(=O)c2c[nH]c3ncc(-c4ccc(S(N)(=O)=O)cc4)cc23)c1F
Activity [2]: 78% | Activity [3]: 94%

CCCS(=O)(=O)Nc1ccc(F)c(C(=O)c2ccc3[nH]c4ncc(-c5ccc(O)cc5)cc4c3c2)c1F
Activity [2]: 100% | Activity [3]: 100%

CCCS(=O)(=O)Nc1ccc(F)c(C(=O)c2c[nH]c3ncc(-c4ccc(O)cc4)cc23)c1F
Activity [2]: 100% | Activity [3]: 0.15%

CCCS(=O)(=O)Nc1ccc(F)c(C(=O)c2ccc3[nH]c4ncc(-c5ccc(OCC(O)CO)cc5)cc4c3c2)c1F (stereo unspecified)
Activity [2]: 96% | Activity [3]: 100%
